Data taken from the supplement of paper PMC11451515.

Test system: NOMO1
Test: cell viability relative to DMSO control; higher = less cytotoxic
Details: 48 h
Outline: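 Viability values are per-plate percentages of DMSO wells, with background from cell-free wells. Library compounds in DMSO were pin-dosed, in an 11-point threefold series from 47 μM to 0.79 nM, onto NOMO1 or SEM (500 cells/well) or P12-Ichikawa (1000 cells/well) leukemia cells in 1536-well plates (5 μl). Those cells had been adapted for at least four passages in each medium, and CellTiter-Glo One luminescence was read after 48 h at 37°C.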

[1] = HPLM + 10% dialyzed FBS, 0.000781 µM
[2] = HPLM + 10% dialyzed FBS, 0.00234 µM
[3] = HPLM + 10% dialyzed FBS, 0.00702 µM
[4] = HPLM + 10% dialyzed FBS, 0.0211 µM
[5] = HPLM + 10% dialyzed FBS, 0.0632 µM
[6] = HPLM + 10% dialyzed FBS, 0.19 µM
[7] = HPLM + 10% dialyzed FBS, 0.569 µM
[8] = HPLM + 10% dialyzed FBS, 1.71 µM
[9] = HPLM + 10% dialyzed FBS, 5.12 µM
[10] = HPLM + 10% dialyzed FBS, 15.4 µM
[11] = HPLM + 10% dialyzed FBS, 46.1 µM
[12] = RPMI 5 mM glucose + 10% FBS, 0.000781 µM
[13] = RPMI 5 mM glucose + 10% FBS, 0.00234 µM
[14] = RPMI 5 mM glucose + 10% FBS, 0.00702 µM
[15] = RPMI 5 mM glucose + 10% FBS, 0.0211 µM
[16] = RPMI 5 mM glucose + 10% FBS, 0.0632 µM
[17] = RPMI 5 mM glucose + 10% FBS, 0.19 µM
[18] = RPMI 5 mM glucose + 10% FBS, 0.569 µM
[19] = RPMI 5 mM glucose + 10% FBS, 1.71 µM
[20] = RPMI 5 mM glucose + 10% FBS, 5.12 µM
[21] = RPMI 5 mM glucose + 10% FBS, 15.4 µM
[22] = RPMI 5 mM glucose + 10% FBS, 46.1 µM
[23] = RPMI 5 mM glucose + 10% dialyzed FBS, 0.000781 µM
[24] = RPMI 5 mM glucose + 10% dialyzed FBS, 0.00234 µM
[25] = RPMI 5 mM glucose + 10% dialyzed FBS, 0.00702 µM
[26] = RPMI 5 mM glucose + 10% dialyzed FBS, 0.0211 µM
[27] = RPMI 5 mM glucose + 10% dialyzed FBS, 0.0632 µM
[28] = RPMI 5 mM glucose + 10% dialyzed FBS, 0.19 µM
[29] = RPMI 5 mM glucose + 10% dialyzed FBS, 0.569 µM
[30] = RPMI 5 mM glucose + 10% dialyzed FBS, 1.71 µM
[31] = RPMI 5 mM glucose + 10% dialyzed FBS, 5.12 µM
[32] = RPMI 5 mM glucose + 10% dialyzed FBS, 15.4 µM
[33] = RPMI 5 mM glucose + 10% dialyzed FBS, 46.1 µM

`Cc1cc(SCc2sc(-c3ccc(C(F)(F)F)c(F)c3)nc2C)ccc1OCC(=O)O` was tested, and the cell viability [1] was 104%, the cell viability [2] was 110% and the cell viability [3] was 120%. The cell viability [4] was 87.7%, the cell viability [5] was 114% and the cell viability [6] was 103%. The cell viability [7] was 110%, the cell viability [8] was 95.4% and the cell viability [9] was 93.7%. The cell viability [10] was 96.6%, the cell viability [11] was 92.9% and the cell viability [12] was 98.2%. For the same compound, the cell viability [13] was 90.4%, the cell viability [14] was 86% and the cell viability [15] was 90.3%. It also gave a cell viability [16] of 91%, a cell viability [17] of 98.8% and a cell viability [18] of 99.6%. It also gave a cell viability [19] of 88.8%, a cell viability [20] of 88.7% and a cell viability [21] of 92.6%. It also gave a cell viability [22] of 86.8%, a cell viability [23] of 99.5% and a cell viability [24] of 103%. It also gave a cell viability [25] of 93.5%, a cell viability [26] of 95% and a cell viability [27] of 99.2%. For the same compound, the cell viability [28] was 111%, the cell viability [29] was 97.9% and the cell viability [30] was 94%. It also gave a cell viability [31] of 104%, a cell viability [32] of 87.4% and a cell viability [33] of 97%.
`COC1=CC=C(C=C1)C/2=C/OC3=CC(=CC=C3C2=O)O` gave a cell viability [1] of 108%, a cell viability [2] of 125% and a cell viability [3] of 114%. For the same compound, the cell viability [4] was 119%, the cell viability [5] was 116% and the cell viability [6] was 119%. It also gave a cell viability [7] of 119%, a cell viability [8] of 109% and a cell viability [9] of 83.1%. For the same compound, the cell viability [10] was 67.9%, the cell viability [11] was 43.1% and the cell viability [12] was 123%. It also gave a cell viability [13] of 111%, a cell viability [14] of 121% and a cell viability [15] of 115%. It also gave a cell viability [16] of 132%, a cell viability [17] of 114% and a cell viability [18] of 106%. For the same compound, the cell viability [19] was 118%, the cell viability [20] was 102% and the cell viability [21] was 101%. The cell viability [22] was 71.1%, the cell viability [23] was 122% and the cell viability [24] was 120%. For the same compound, the cell viability [25] was 113%, the cell viability [26] was 106% and the cell viability [27] was 133%. It also gave a cell viability [28] of 121%, a cell viability [29] of 101% and a cell viability [30] of 105%. It also gave a cell viability [31] of 111%, a cell viability [32] of 104% and a cell viability [33] of 98.4%.
`C[C@H]1[C@@H](CC(C[C@H]2O[C@@H]3O[C@]4(C)CC[C@H]5[C@H](C)CC[C@@H]([C@H]2C)[C@@]35OO4)C[S+](=O)([O-])c2ccc(COC(=O)N(C)C)cc2)O[C@@H]2O[C@]3(C)CC[C@H]4[C@H](C)CC[C@@H]1[C@@]24OO3` gave a cell viability [1] of 122%, a cell viability [2] of 123% and a cell viability [3] of 116%. The cell viability [4] was 120%, the cell viability [5] was 127% and the cell viability [6] was 110%. It also gave a cell viability [7] of 44.8%, a cell viability [8] of 22.5% and a cell viability [9] of 22.3%. The cell viability [10] was 17.9%, the cell viability [11] was 10.8% and the cell viability [12] was 114%. The cell viability [13] was 119%, the cell viability [14] was 113% and the cell viability [15] was 98.9%. The cell viability [16] was 103%, the cell viability [17] was 101% and the cell viability [18] was 82.5%. For the same compound, the cell viability [19] was 28%, the cell viability [20] was 21.8% and the cell viability [21] was 17%. It also gave a cell viability [22] of 15.1%, a cell viability [23] of 109% and a cell viability [24] of 118%. The cell viability [25] was 100%, the cell viability [26] was 110% and the cell viability [27] was 108%. The cell viability [28] was 91.9%, the cell viability [29] was 32.3% and the cell viability [30] was 22.5%. The cell viability [31] was 24%, the cell viability [32] was 18.8% and the cell viability [33] was 14.8%.
Compound `CC1=C(/C=C/C(C)=C/C=C/C(C)=C/C(=O)Nc2ccc(O)cc2)C(C)(C)CCC1` has a cell viability [1] of 63.6%, a cell viability [2] of 82.3% and a cell viability [3] of 97.9%. It also gave a cell viability [4] of 102%, a cell viability [5] of 87.5% and a cell viability [6] of 81.5%. For the same compound, the cell viability [7] was 94.6%, the cell viability [8] was 80.6% and the cell viability [9] was 53.6%. It also gave a cell viability [10] of 25.9%, a cell viability [11] of 4.95% and a cell viability [12] of 72.4%. The cell viability [13] was 85.1%, the cell viability [14] was 74.5% and the cell viability [15] was 96.5%. The cell viability [16] was 91%, the cell viability [17] was 79.9% and the cell viability [18] was 95%. For the same compound, the cell viability [19] was 78.8%, the cell viability [20] was 63% and the cell viability [21] was 34%. It also gave a cell viability [22] of 4.45%, a cell viability [23] of 78% and a cell viability [24] of 76.4%. The cell viability [25] was 77.8%, the cell viability [26] was 92.9% and the cell viability [27] was 90.9%. For the same compound, the cell viability [28] was 89.7%, the cell viability [29] was 86% and the cell viability [30] was 85.5%. For the same compound, the cell viability [31] was 55.8%, the cell viability [32] was 23.6% and the cell viability [33] was 3.24%.
`CC1(C)OC/2=C(\[C@H](NCC3=CC=CC=C3)[C@@H]1O)C(=O)C4=CC=CC=C4C2=O` gave a cell viability [1] of 112%, a cell viability [2] of 36.5% and a cell viability [3] of 117%. The cell viability [4] was 101%, the cell viability [5] was 104% and the cell viability [6] was 96.1%. It also gave a cell viability [7] of 108%, a cell viability [8] of 82.5% and a cell viability [9] of 37.6%. For the same compound, the cell viability [10] was 22.4%, the cell viability [11] was 7.72% and the cell viability [12] was 89.7%. It also gave a cell viability [13] of 99.6%, a cell viability [14] of 89.2% and a cell viability [15] of 95.5%. For the same compound, the cell viability [16] was 86.7%, the cell viability [17] was 93.8% and the cell viability [18] was 95%. The cell viability [19] was 98.2%, the cell viability [20] was 37.4% and the cell viability [21] was 17.5%. The cell viability [22] was 5.95%, the cell viability [23] was 86.7% and the cell viability [24] was 90.2%. The cell viability [25] was 88.1%, the cell viability [26] was 89.3% and the cell viability [27] was 98.3%. The cell viability [28] was 92.6%, the cell viability [29] was 97.6% and the cell viability [30] was 86.9%. The cell viability [31] was 60.2%, the cell viability [32] was 26.7% and the cell viability [33] was 5.24%.
In the case of `c1ccc2c(-c3cnn4cc(-c5ccc(N6CCNCC6)cc5)cnc34)ccnc2c1`, the cell viability [1] is reported as 79.8%, the cell viability [2] is reported as 77.8% and the cell viability [3] is reported as 134%. It also gave a cell viability [4] of 166%, a cell viability [5] of 144% and a cell viability [6] of 143%. For the same compound, the cell viability [7] was 146%, the cell viability [8] was 121% and the cell viability [9] was 114%. For the same compound, the cell viability [10] was 111%, the cell viability [11] was 90.3% and the cell viability [12] was 93.8%. The cell viability [13] was 91.3%, the cell viability [14] was 139% and the cell viability [15] was 133%. For the same compound, the cell viability [16] was 132%, the cell viability [17] was 137% and the cell viability [18] was 128%. The cell viability [19] was 126%, the cell viability [20] was 122% and the cell viability [21] was 120%. It also gave a cell viability [22] of 87.7%, a cell viability [23] of 83.9% and a cell viability [24] of 72%. The cell viability [25] was 122%, the cell viability [26] was 120% and the cell viability [27] was 173%. The cell viability [28] was 150%, the cell viability [29] was 141% and the cell viability [30] was 144%. It also gave a cell viability [31] of 146%, a cell viability [32] of 117% and a cell viability [33] of 77.8%.
Work on `CC1=CC2=C(O1)C(=C3OC(=O)\C=C(C)/C3=C2)C` yielded a cell viability [1] of 79.8%, a cell viability [2] of 98.7% and a cell viability [3] of 90.9%. It also gave a cell viability [4] of 114%, a cell viability [5] of 104% and a cell viability [6] of 123%. It also gave a cell viability [7] of 125%, a cell viability [8] of 121% and a cell viability [9] of 95.2%. For the same compound, the cell viability [10] was 124%, the cell viability [11] was 116% and the cell viability [12] was 114%. For the same compound, the cell viability [13] was 102%, the cell viability [14] was 112% and the cell viability [15] was 115%. The cell viability [16] was 125%, the cell viability [17] was 108% and the cell viability [18] was 114%. For the same compound, the cell viability [19] was 102%, the cell viability [20] was 113% and the cell viability [21] was 106%. For the same compound, the cell viability [22] was 106%, the cell viability [23] was 91.2% and the cell viability [24] was 92.2%. It also gave a cell viability [25] of 99.8%, a cell viability [26] of 102% and a cell viability [27] of 107%. For the same compound, the cell viability [28] was 98%, the cell viability [29] was 112% and the cell viability [30] was 105%. For the same compound, the cell viability [31] was 114%, the cell viability [32] was 102% and the cell viability [33] was 114%.
